The text below walks through data of PMC8179002, “Inhibitors of thiol-mediated uptake” (Chemical Science, 2020).

This series can be described thus: Relative cell viability in HCHT screening (propidium iodide negative nuclei count). The format is cell-based. The note with it: human, HeLa, read-out: GI50, concentration causing 50% cell growth inhibition. In a few lines: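 HeLa cells pre-incubated with inhibitors at varying concentrations and times, inhibitors removed (or retained in co-incubation variant), then fluorescent reporter added. Live cells counted by automated microscopy as propidium iodide-negative nuclei, normalised to reporter-only wells; GI50 and Hill coefficient fitted from duplicates.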

[1] abbreviates: tpre 0.5 h, then tco 0.5 h co-incubation of inhibitor and 1 (10 µM).
The mark [2] stands for this setting: tpre 0.5 h, then tco 0.5 h co-incubation of inhibitor and 2 (10 µM).
Where [3] appears, read: tpre 0.5 h with inhibitor, removal, tinc 0.5 h with 1 (10 µM).
Where [4] appears, read: tpre 1 h with inhibitor, removal, tinc 0.5 h with 1 (10 µM).
Setting [5] is: tpre 1 h with inhibitor, removal, tinc 0.5 h with 2 (10 µM).
[6] abbreviates: tpre 2 h with inhibitor, removal, tinc 0.5 h with 1 (10 µM).
The mark [7] stands for this setting: tpre 4 h with inhibitor, removal, tinc 0.5 h with 1 (10 µM).
Where [8] appears, read: tpre 5.5 h with FBS, then tco 0.5 h co-incubation of inhibitor and 1 (10 µM).
Where [9] appears, read: tpre 6 h with FBS, removal, tinc 0.5 h with 2 (10 µM).
[10] abbreviates: tpre 23.5 h with FBS, then tco 0.5 h co-incubation of inhibitor and 1 (10 µM).
Where [11] appears, read: tpre 4 h with inhibitor, removal, tinc 0.5 h with 2 (10 µM).
[12] abbreviates: tpre 23.5 h with FBS, then tco 0.5 h co-incubation of inhibitor and 2 (10 µM).
Setting [13] is: HeLa Kyoto cells, tpre 0.5 h, then tco 0.5 h co-incubation of inhibitor and 2 (10 µM).
[14] abbreviates: HeLa Kyoto cells, tpre 0.5 h with inhibitor, removal, tinc 0.5 h with 1 (10 µM).
[15] abbreviates: HeLa Kyoto cells, tpre 1 h with inhibitor, removal, tinc 0.5 h with 1 (10 µM).
[16] abbreviates: HeLa Kyoto cells, tpre 1 h with inhibitor, removal, tinc 0.5 h with 2 (10 µM).
[17] abbreviates: HeLa Kyoto cells, tpre 1.5 h, then tco 0.5 h co-incubation of inhibitor and 2 (10 µM).
Where [18] appears, read: HeLa Kyoto cells, tpre 2 h with inhibitor, removal, tinc 0.5 h with 1 (10 µM).
Setting [19] is: HeLa Kyoto cells, tpre 2 h with inhibitor, removal, tinc 0.5 h with 2 (10 µM).
The mark [20] stands for this setting: HeLa Kyoto cells, tpre 4 h with inhibitor, removal, tinc 0.5 h with 2 (10 µM).

Read-outs that look alike come from different tables or passages of the source. Bridge positions count the residues as written; N and C are the ends. Peptide text beside a SMILES is read from it. Bounds are passed on as bounds.

For `CCN1C(=O)C2SSSSC1C(=O)N2CC(=O)O` (stereo not shown) [compound 3], the GI50 was 13.3 ± 0.8 µM under setting [1]; around 20 µM under setting [2]; 34 ± 2.9 µM under setting [3]; 35 ± 4.4 µM under setting [4]; above 20 µM under setting [5]; 46.1 ± 4.8 µM under setting [6]. The GI50 is, setting by setting: under setting [7], above 50 µM; under setting [8], above 50 µM; under setting [9], above 100 µM; under setting [10], above 50 µM.

As to `CCN1C(=O)C2SSC1C(=O)N2CC(=O)O` (stereo not shown) [compound 4], the GI50 was around 8.4 µM under setting [1]; around 20 µM under setting [2]; above 100 µM under setting [3]; 12.5 ± 0.7 µM under setting [4]; above 20 µM under setting [5]; around 9.2 µM under setting [6]. Moreover, the GI50 reads like this: under setting [7], 6.4 ± 0.3 µM; under setting [11], around 4 µM; under setting [8], above 20 µM; under setting [10], above 20 µM.

Consider `O=C(O)CNC(=O)c1ccc2c(c1)SSSSS2` [compound 6], for which the GI50 is above 20 µM under setting [1]; above 20 µM under setting [2]; above 100 µM under setting [3]; around 98 µM under setting [4]; around 45 µM under setting [6]; around 44 µM under setting [7]. Further, the GI50 runs as follows: under setting [11], around 17 µM; under setting [8], above 20 µM; under setting [9], around 105 µM; under setting [10], above 20 µM.

Consider `O=C(CN1C(=O)C2SSC1C(=O)N2CCOc1ccccc1)NCC(=O)OC[C@H]1OC(O)[C@H](O)[C@@H](O)[C@@H]1O` (stereo partly shown) [compound 7], for which the GI50 by setting is: under setting [3], above 100 µM; under setting [4], above 100 µM; under setting [6], above 100 µM; under setting [11], above 100 µM; under setting [8], above 100 µM; under setting [9], above 200 µM. The GI50 by setting is: under setting [10], above 100 µM; under setting [12], above 100 µM.

In the case of `O=C(O)CC[C@H](NC(=O)CN1C(=O)C2SSC1C(=O)N2CCOc1ccccc1)C(=O)O` (stereo partly shown) [compound 9], the GI50 is, setting by setting: under setting [3], above 100 µM; under setting [4], above 100 µM; under setting [6], above 100 µM; under setting [11], above 100 µM; under setting [9], above 200 µM.

With `O=C(O)CC[C@H](NC(=O)CCCCC1CCSS1(=O)=O)C(=O)O` (stereo partly shown) [compound 15], the GI50 reads like this: under setting [3], above 500 µM; under setting [4], above 500 µM; under setting [6], above 500 µM; under setting [11], above 500 µM; under setting [8], above 1000 µM; under setting [10], 944 ± 60 µM. Moreover, under setting [12], the GI50 was above 500 µM.

With `O=S1(=O)C[C@H](O)[C@H](O)CS1` [compound 16], the GI50 is, setting by setting: under setting [4], 1300 ± 490 µM; under setting [11], above 500 µM; under setting [8], above 1000 µM; under setting [10], 490 ± 60 µM.

Regarding `[O-][S+]1CC(O)C(O)CS1` (stereo not shown) [compound 17], the GI50 is, setting by setting: under setting [1], above 500 µM; under setting [8], above 1000 µM; under setting [10], 450 ± 50 µM.

Turning to `N[C@H]1CSSC[C@@H](C(=O)NCC(=O)O)NC(=O)[C@H](CCC(=O)O)NC1=O` [compound 18] (H-CECG-OH; disulfide 1-3), the GI50 at 1 h was above 500 µM (HeLa Kyoto cells, tpre 0.5 h, then tco 0.5 h co-incubation of inhibitor and 1 (10 µM)); above 500 µM under setting [13]; above 2000 µM under setting [15]; above 1000 µM under setting [16]. Under setting [14], the GI50 at 0.5 h is above 2000 µM. For the same molecule, the GI50 at 2 h is, setting by setting: under setting [17], above 500 µM; under setting [18], above 2000 µM; under setting [19], above 1000 µM. The GI50 at 4 h under setting [20] is above 1000 µM. In addition, the GI50 at 6 h (HeLa Kyoto cells, tpre 5.5 h with FBS, then tco 0.5 h co-incubation of inhibitor and 1 (10 µM)) was above 1000 µM. Moreover, for the setting “HeLa Kyoto cells, tpre 23.5 h with FBS, then tco 0.5 h co-incubation of inhibitor and 1 (10 µM)”, the GI50 at 24 h is above 1000 µM.

With `N[C@H]1CSSC[C@@H](C(=O)N[C@@H](CCC(=O)O)C(=O)O)NC(=O)CNC1=O` [compound 19] (H-CGCE-OH; disulfide 1-3), the GI50 at 1 h reads like this: under setting [13], above 500 µM; under setting [15], above 2000 µM; under setting [16], above 1000 µM. For the same molecule, the GI50 at 0.5 h under setting [14] was above 2000 µM. Further, the GI50 at 2 h runs as follows: under setting [17], above 500 µM; under setting [18], above 2000 µM; under setting [19], above 1000 µM. Further, the GI50 at 4 h under setting [20] is above 1000 µM.
